Laboratory results: PMC11003925, “Antimicrobial activity and properties of de novo design of short synthetic lipopeptides” (Folia Microbiologica, 2024)
In brackets after ≈: the same amount, converted by molar mass. Like-named read-outs stand apart in the source and are kept apart here. Residues, ends and D or L forms follow the SMILES beside them. *: point of attachment. Lithocholoyl = C[C@H](CCC(=O)*)[C@H]1CC[C@H]2[C@@H]3CC[C@@H]4C[C@H](O)CC[C@]4(C)[C@H]3CC[C@]12C

How the values were obtained:
B. subtilis DBM 3006 = assay type: cell-based, Bacillus subtilis; conditions: for MIC: DBM 3006, 24 h; for IC50: DBM 3006, 25 h
Procedure: (§1) A Bioscreen C automated microbiology growth curve analysis system (Growth Curves, Piscataway, NJ, USA) was used for the quantitative determination of antimicrobial activity (minimal inhibitory concentration, MIC) of PAL/LCA-peptides. Optical density was measured with a wide bandpass filter (wavelength range 420–580 nm) at regular intervals and temperatures. This assay was performed in a special microtiter plate (10 × 10 wells) that allowed the simultaneous testing of a large number of samples against several microorganisms. The total testing volume was 100 µL, obtained by mixing 10 µL of microbial culture with OD600 equal to 0.1 with growth medium and a solution of the tested compounds. The positive controls were vancomycin and tetracycline for Bacillus subtilis (100 µg/mL) for Gram-positive bacteria, kanamycin, and tetracycline for Acinetobacter baumannii (100 µg/mL) for Gram-negative bacteria, and clotrimazole or amphotericin (100 µg/mL) for fungi. The maximal concentration of tested lipoproteins was 1 mg/mL. A pure growth medium was used as the negative control. The measurement period was 25 h. The lowest concentration with a 100% inhibition effect for 24 h of incubation was chosen as the MIC. The antibacterial activity of each compound was expressed as the minimum inhibitory concentration MIC (MIC is the lowest concentration of the compound needed to inhibit the growth of bacterial cells) and IC50 (IC50 is the concentration of the compound needed to inhibit the growth of bacterial cells by 50%).

[1] = tested on: plasmid pBluescript II KS-; assay: DNA binding assay (gel retardation); conditions: 50 ng DNA, 1 h room temperature, 1% agarose gel
Procedure: This assay was performed as described by Park et al. ([1998]), with a few modifications. […] The reaction mixture was incubated at room temperature for 1 h. Subsequently, 4 µL of native loading buffer (10% Ficol, 10 mM Tris–HCl (pH 7.5), 50 mM EDTA, 0.25% bromophenol blue) was added. An aliquot was applied to 1% agarose gel electrophoresis in 0.5xTris borate-EDTA buffer. Circular plasmid DNA was isolated from (Luria–Bertani medium with AMPI in final concentration 100 µg/mL) bacterial strain E. coli DH5α / pBluescriptII KS- that had been grown overnight, and linearization was performed overnight by enzymatic reaction using restriction endonuclease EcoRV at 37 °C. The evaluation was performed by visualizing the DNA with the intercalation dye Midori Green Advanced DNA Stain under UV light. Reduced electrophoretic mobility compared to the control is considered to be evidence of peptide binding to DNA.
According to the previous results, we decided to clarify one of the possible molecular interaction mechanisms, the ability of the studied lipopeptides to bind microbial plasmid DNA. Based on the assumption that pore formation is only one of the influencing factors, which arose from previous results, the effect on one of the possible intracellular targets, DNA, was determined. This determination was carried out on isolated plasmid DNA, specifically on two plasmids, pGreen 0029 and pBluescript II KS- in circular and linearized form.

E. coli DBM 3001 = assay type: cell-based; conditions: DBM 3001, 25 h
Procedure: as §1

E. faecalis DBM 3075 = assay type: cell-based; conditions: for IC50: DBM 3075, 25 h
Procedure: as §1

HepG2 = assay: Cytotoxicity assay (xCELLigence impedance); assay type: cell-based, human; conditions: for % inhibition: 24 h exposure
Procedure: (§2) Experiments were carried out using an xCELLigence RTCA DP Instrument (Roche Diagnostics GmbH, Mannheim, Germany) which was placed into an incubator (37 °C and 5% CO2). Cell proliferation and cytotoxicity experiments were performed using modified 16-well plates (E-plate, Roche Diagnostics GmbH, Mannheim, Germany). Microelectrodes were attached to the bottom of the wells for the impedance-based detection of attachment, spreading, and proliferation of the cells (Stoddart [2011]). This system monitors cellular events in real time without the incorporation of labels by measuring electrical impedance across an interdigitated microelectrode integrated into the bottom of this special tissue culture plate. This impedance measurement improves upon conventional endpoint assays and provides quantitative information about the biological status of the cells, including cell number, adhesion, viability, and morphology. Ninety microliters of cultivation medium was used for the blank sample, and subsequently, 100 µL of HepG2 or HEK293T cell suspension (7 × 10^5 cells/mL) was added and placed into the incubator (37 °C, 95% humidity, 5% CO2). […] Chrysophsin-3 at a concentration of 100 µg/mL was used as a positive control and solvent (deionized water) as a negative control. Subsequent incubation was performed for at least an additional 24 h. The result of the measurement was viability curves. After the measurement, percentages of tissue culture growth inhibition were calculated for all the tested substances, as follows: %inhibition=(1-(ΔϕCIsample)/(ΔϕCIcontrol))·100
(§3) Δ∅CIsample … the difference between the first and last average CI (cell index) values of the tissue culture in the presence of the tested sample.
(§4) Δ∅CIcontrol … the difference between the first and last average CI values of the tissue culture itself.

HEK293T = assay: Cytotoxicity assay (xCELLigence impedance); assay type: cell-based, human; conditions: 24 h exposure
Procedure: as §2, §3, §4

C. tropicalis DBM 2166 = assay type: cell-based, Candida tropicalis; conditions: for IC50: DBM 2166, 25 h
Procedure: as §1

Ps. aeruginosa DBM 3081 = assay type: cell-based, Pseudomonas aeruginosa; conditions: 25 h
Procedure: as §1

Staph. aureus = assay: Transmission electron microscopy of treated bacteria; assay type: cell-based, Staphylococcus aureus; conditions: 1 to 4 h incubation; media with (Mueller–Hinton broth 2) and without nutrients (potassium phosphate buffer)
Procedure: Pictures of damaged bacterial cells were obtained by transmission electron microscopy after 1 to 4 h of incubation. Cells of the Gram-positive bacterial strains were not stained. A JEOL JEM-1010 transmission electron microscope (JEOL, Tokyo, Japan) equipped with a MegaView III CCD camera was used for visualization, and evaluation was performed with the program for image analysis AnalySIS software v. 2.0 (Soft Imaging Systems). The samples were plated on a carbon-coated electron microscopic grid and observed with an accelerating voltage of 80 kV.

Staph. aureus DBM 3002 = assay type: cell-based, Staphylococcus aureus; conditions: for MIC: 24 h; for IC50: 25 h
Procedure: as §1

Staph. aureus MRSA1 [2] = assay type: cell-based, Staphylococcus aureus; conditions: for MIC: 24 h; for IC50: 25 h
Procedure: as §1

M. luteus DBM 3053 = assay type: cell-based, Micrococcus luteus; conditions: for MIC: DBM 3053, 24 h; for IC50: DBM 3053, 25 h
Procedure: as §1

A. baumannii DBM 3183 = assay: microbe, parasite or virus in culture; assay type: cell-based, Acinetobacter baumannii; conditions: DBM 3183, 25 h
Procedure: as §1

bacterial membrane = assay: Membrane disruption (released lactate dehydrogenase activity); assay type: cell-based, Staphylococcus aureus; conditions: 1 h incubation at 37 °C, LDH kit, triplets
Procedure: The disruption of the microbial membrane was followed by the detection of lactate dehydrogenase activity released from the intracellular space using a Cytotoxicity Detection Kit (LDH) from Roche (Korzeniewski and Callewaert [1983]; Macurkova et al. [2014]) after 1 h incubation at 37 °C with the PAL/LCA-peptide. The culture supernatant was collected and incubated with the reaction mixture from the kit. In the first step, NAD^+ is reduced to NADH + H^+ by the LDH-catalyzed conversion of lactate to pyruvate. In the second step, the catalyst (diaphorase) transfers H/H^+ from NADH + H^+ to the tetrazolium salt 2-(4-iodophenyl)-3-(4-nitrophenyl)-5-phenyl-2H-tetrazolium chloride (INT), which is reduced to formazan. The formazan dye formed is red and water-soluble and gives a broad absorption maximum at 500 nm. An increase in the amount of dead or plasma membrane-damaged cells results in an increase in the LDH activity in the cell culture supernatant.
To determine the degree of damage to the cell membrane (%) by the tested substances, averages of absorbances (triplets) were calculated from the measured values for the samples, controls, and pure medium. Subsequently, the absorbance average for the clean medium (background) was subtracted from all averages obtained in this way. The degree of damage to the cell membrane by the tested substances was expressed as follows: membranedamage%=((AVZ-∅ANK)/(∅APK-ANK))∙100 ∅AVZ⋯averageabsorbanceofsample ∅ANK⋯averageabsorbanceofnegativecontrol ∅APK⋯averageabsorbanceofpositivecontrol

Staph. aureus MRSA1 [3] = assay type: cell-based, Staphylococcus aureus; conditions: 2xMIC, 37 °C
Procedure: This assay was used to determine how quick the effect of PAL/LCA-peptides is on bacteria, as well as whether the activity of these compounds is dependent on the presence of active bacterial metabolism (Kamysz et al. [2007]). The bacterial cultures were incubated overnight at 37 °C in Mueller–Hinton’s broth 2 or potassium phosphate buffer (0.1 M, pH 7). Cultures were diluted to OD600 equal to 0.1 and divided into 2 samples, and the final volume of each sample was 1 mL; after that, they were centrifuged (5000 × g, 10 min) to collect bacteria. […] The samples were incubated at 37 °C. At specific time intervals, samples of bacterial suspension were taken, diluted, and spread on Petri dishes with Mueller–Hinton’s agar to count the number of surviving cells as colony-forming units (CFU). The whole experiment lasted 24 h.

DNA = conditions: ref Ball et al. [2004]; cited from earlier work
Source text: The majority of the known antimicrobial peptides have been isolated from natural sources. Recently genomic and proteomic methods have also been applied for peptide identification. Knowledge obtained by both classical and novel methods can be used to design the chemical synthesis of new peptide compounds with biological properties. The sequence analysis of natural antimicrobial peptides led to a template, with which it is possible to generate active AMPs (Tossi et al. [1997]; Giangaspero et al. [2001]; Tossi et al. [2000]). We designed three scrambled hexapeptides, one according to this templat ...

| Structure (SMILES) | MIC (B. subtilis DBM 3006) | IC50 (B. subtilis DBM 3006) | IC50 (E. coli DBM 3001) | IC50 (E. faecalis DBM 3075) | % inhibition (HepG2; c 50 µg/mL) | % inhibition (HepG2; c 100 µg/mL) | % inhibition (HEK293T; c 50 µg/mL) | % inhibition (HEK293T; c 100 µg/mL) | % inhibition (HEK293T; c 200 µg/mL) | IC50 (C. tropicalis DBM 2166) | IC50 (Ps. aeruginosa DBM 3081) | morphological effect on bacterial cells (TEM) (Staph. aureus) | MIC (Staph. aureus DBM 3002) | IC50 (Staph. aureus DBM 3002) | MIC (Staph. aureus MRSA1 [2]) | IC50 (Staph. aureus MRSA1 [2]) | MIC (M. luteus DBM 3053) | IC50 (M. luteus DBM 3053) | other results |
| --- | --- | --- | --- | --- | --- | --- | --- | --- | --- | --- | --- | --- | --- | --- | --- | --- | --- | --- | --- |
| CC(C)C[C@H](NC(=O)CC[C@@H](C)[C@H]1CC[C@H]2[C@@H]3CC[C@@H]4C[C@H](O)CC[C@]4(C)[C@H]3CC[C@]12C)C(=O)N[C@H](C(=O)N[C@@H](CCCCN)C(=O)NCC(=O)N[C@@H](C)C(=O)N[C@@H](CCCNC(=N)N)C(N)=O)C(C)C [SHP-2.3, LCA-LVKGAR-NH2] (Lithocholoyl-LVKGAR-NH2) | 6.9 µg/mL (≈ 6.9 µM) | 20.0 µg/mL (≈ 20 µM) | N / > 100.0 µg/mL | N / > 100.0 µg/mL | 7.4 ± 1.1% | 0.0 ± 2.2% | 25.6 ± 3.8% | 42.2 ± 6.3% | 85.1 ± 12.8% | 75.0 µg/mL (≈ 75 µM) | N / > 100.0 µg/mL | damaging cellular envelopes | 31.9 µg/mL (≈ 31.9 µM) | 50.0 µg/mL (≈ 50 µM) | 25.1 µg/mL (≈ 25.1 µM) | 50.0 µg/mL (≈ 50 µM) | 1.6 µg/mL (≈ 1.6 µM) | 5.0 µg/mL (≈ 5 µM) | weight ratio lipopeptide:DNA influencing electrophoretic mobility ([1]; circular plasmid): 10.0; weight ratio lipopeptide:DNA influencing electrophoretic mobility ([1]; linearized plasmid): 10.0; MIC (C. tropicalis DBM 2166; DBM 2166, 24 h): 56.4 µg/mL (≈ 56.4 µM); IC50 (A. baumannii DBM 3183): N / > 100.0 µg/mL |
| CC(C)C[C@H](NC(=O)CC[C@@H](C)[C@H]1CC[C@H]2[C@@H]3CC[C@@H]4C[C@H](O)CC[C@]4(C)[C@H]3CC[C@]12C)C(=O)N[C@H](C(=O)N[C@@H](CCCCN)C(=O)N[C@@H](CCCNC(=N)N)C(=O)N[C@@H](C)C(=O)NCC(N)=O)C(C)C [SHP-1.3, LCA-LVKRAG-NH2] (Lithocholoyl-LVKRAG-NH2) | 31.5 µg/mL (≈ 31.5 µM) | 40.0 µg/mL (≈ 40 µM) | N / > 100.0 µg/mL | 100.0 µg/mL (≈ 100 µM) | 57.4 ± 8.6% | 92.8 ± 13.9% | 63.8 ± 9.6% | 72.0 ± 10.8% | 84.1 ± 12.6% | 30.0 µg/mL (≈ 30 µM) | N / > 100.0 µg/mL | damaging cellular envelopes | 33.0 µg/mL (≈ 33 µM) | 50.0 µg/mL (≈ 50 µM) | 30.6 µg/mL (≈ 30.6 µM) | 50.0 µg/mL (≈ 50 µM) | 5.5 µg/mL (≈ 5.5 µM) | 10.0 µg/mL (≈ 10 µM) | Membrane damage (%) (bacterial membrane; KP (potassium phosphate buffer)): 30 ± 5%; Membrane damage (%) (bacterial membrane; MHB (Mueller–Hinton broth II)): 0 ± 5%; MIC (E. faecalis DBM 3075; DBM 3075, 24 h): 71.5 µg/mL (≈ 71.5 µM); % inhibition (HepG2; c 200 µg/mL): 97.8 ± 14.7%; efficiency on HepG2 cells (HepG2; concentration not given): 97%; MIC (C. tropicalis DBM 2166; first value of cell 'MIC / IC50', 100% inhibition for 24 h): 10.3 µg/mL (≈ 10.3 µM); bacteria killed within half an hour (Staph. aureus MRSA1 [3]; about 10^7 cells, SHP-1.2 only in medium with nutrients, SHP-1.3 in both media): 100%; killing activity (%) (Staph. aureus MRSA1 [3]; KP (potassium phosphate buffer, without nutrients)): 100 ± 18%; killing activity (%) (Staph. aureus MRSA1 [3]; MHB (Mueller–Hinton broth II, with nutrients)): 100 ± 12% |
| C[C@H](CCC(=O)O)[C@H]1CC[C@H]2[C@@H]3CC[C@@H]4C[C@H](O)CC[C@]4(C)[C@H]3CC[C@]12C [LCA, lithocholic acid] | – | – | – | – | – | – | – | – | – | – | – | – | – | – | – | – | – | – | concentration range in which mutagenic factor (DNA): 200 to 400 µM |
